The NIST ThermoML archive (doi:10.1016/j.fluid.2016.03.013)
± gives the expanded uncertainty stated by the source.

Assay: xn = mol fraction of the nth substance listed
Conditions: for surface tension liquid-gas / mass density: draining crucible method; for viscosity / mass density: 101 kPa, Liquid; for viscosity: Draining crucible

With `[Al]` [aluminum] + [Zn] the surface tension liquid-gas (873 K, x1 = 0.25) was 802.1 ± 49 mN/m, the surface tension liquid-gas (873 K, x1 = 0.51) was 830.8 ± 49 mN/m and the viscosity (873 K, x1 = 0.25) was 1.917 ± 0.095 mPa·s. For the same compound, the viscosity (873 K, x1 = 0.51) was 1.633 ± 0.095 mPa·s, the mass density (873 K, x1 = 0.25) was 5201 ± 86 kg/m3 and the mass density (873 K, x1 = 0.51) was 4204 ± 86 kg/m3. It also gave a surface tension liquid-gas (923 K, x1 = 0.25) of 789.4 ± 49 mN/m, a surface tension liquid-gas (923 K, x1 = 0.51) of 819.6 ± 49 mN/m and a surface tension liquid-gas (923 K, x1 = 0.83) of 858.7 ± 49 mN/m. It also gave a viscosity (923 K, x1 = 0.25) of 1.791 ± 0.095 mPa·s, a viscosity (923 K, x1 = 0.51) of 1.542 ± 0.094 mPa·s and a viscosity (923 K, x1 = 0.83) of 1.356 ± 0.094 mPa·s. For the same compound, the mass density (923 K, x1 = 0.25) was 5139 ± 86 kg/m3, the mass density (923 K, x1 = 0.51) was 4138 ± 88 kg/m3 and the mass density (923 K, x1 = 0.83) was 2720 ± 89 kg/m3. It also gave a surface tension liquid-gas (973 K, x1 = 0.25) of 779.3 ± 49 mN/m, a surface tension liquid-gas (973 K, x1 = 0.51) of 806.5 ± 49 mN/m and a surface tension liquid-gas (973 K, x1 = 0.83) of 848.1 ± 49 mN/m. For the same compound, the viscosity (973 K, x1 = 0.25) was 1.696 ± 0.095 mPa·s, the viscosity (973 K, x1 = 0.51) was 1.448 ± 0.094 mPa·s and the viscosity (973 K, x1 = 0.83) was 1.271 ± 0.094 mPa·s. It also gave a mass density (973 K, x1 = 0.25) of 5089 ± 86 kg/m3, a mass density (973 K, x1 = 0.51) of 4089 ± 88 kg/m3 and a mass density (973 K, x1 = 0.83) of 2680 ± 89 kg/m3. It also gave a surface tension liquid-gas (1023 K, x1 = 0.25) of 763.8 ± 49 mN/m, a surface tension liquid-gas (1023 K, x1 = 0.51) of 795.8 ± 49 mN/m and a surface tension liquid-gas (1023 K, x1 = 0.83) of 836.9 ± 49 mN/m. For the same compound, the viscosity (1023 K, x1 = 0.25) was 1.643 ± 0.094 mPa·s, the viscosity (1023 K, x1 = 0.51) was 1.405 ± 0.094 mPa·s and the viscosity (1023 K, x1 = 0.83) was 1.222 ± 0.094 mPa·s. The mass density (1023 K, x1 = 0.25) was 5011 ± 86 kg/m3, the mass density (1023 K, x1 = 0.51) was 3995 ± 88 kg/m3 and the mass density (1023 K, x1 = 0.83) was 2530 ± 90 kg/m3.
